Drawing on patent US9284296B2, “Bipyridine sulfonamide derivatives for the treatment of neurodegenerative diseases or conditions” (AUBERGINE PHARMACEUTICALS LLC, priority 2010, dated 2016), this text covers EC50 and IC50 for 42 molecules.

Structures are written as SMILES.

The subject of the first test is SH-SY5Y human neuroblastoma cells. The test is described as follows: Protection against hydrogen peroxide-induced cell death. Type of test: cell-based. To be noted: Homo sapiens; SH-SY5Y cells, 1 h preincubation, 100 μM hydrogen peroxide, 24 h, LDH readout of live cells. The procedure:
The aim of this assay is to determine the neuroprotective effect of the compounds when human neuroblastoma cells are exposed to the oxidative stress induced by hydrogen peroxide, which leads to cell death. Therefore the protective effect of the compounds was measured by monitoring cell survival using a suitable commercial kit (Cytotoxicity Detection Kit, Roche Diagnostics GmbH, Mannheim, Germany) based on the quantification of the lactate dehydrogenase activity obtained from lysates of the remaining live cells with a colorimetric assay yielding absorbance at 492 nm as the final readout.
SH-SY5Y human neuroblastoma cells were seeded into 96-well culture plate at a density of 10,000 cells/well. Cells were preincubated for one hour with different concentrations of the compound at a 1% (v/v) DMSO concentration in an equivolumetric mixture of Minimum Essential Medium (MEM) and Nutrient Mixture HAM F12 supplemented with 10% foetal bovine serum, 100 U/ml penicillin, 100 μg/ml streptomycin, 1 mM each of non-essential aminoacids (commercial preparation from GIBCO, Paisley, UK) and 2 mM L-glutamine. Hydrogen peroxide was then added to reach 100 μM and the incubation was extended for 24 h. Then the medium was removed and live cells, which remained attached to the bottom of the plate, were lysed by incubating them during 5 min with 50 μl of 1% (v/v) Triton X-100 in Krebs-Hepes buffer (10 mM Hepes pH7.3 with 145 mM NaCl, 5.5 mM KCl, 1 mM MgCl2, 2 mM CaCl2 and 1 mM glucose). This lysate was used to measure LDH activity using the commercial kit according to the manufacturer's instructions. In the culture plate several wells were included as a control of cell death, in these wells the cells were preincubated with 1% (v/v) DMSO before hydrogen peroxide addition. Likewise, several wells were included as control for full cell survival, in these wells the addition of H2O2 was omitted. The absorbance of each tested sample was normalized to that of the control wells, so that for every compound concentration the percentage of protective effect was calculated with the following equation:
[formula] where “S” is the absorbance of the sample being considered, “E” is the average absorbance of wells used as control of full cell survival and “B” is the average absorbance of wells used as control of cell death. The values obtained at every compound concentration were finally used to calculate the EC50 (i.e., the concentration causing 50% of protective effect) of the tested compound. For that purpose the data were fitted to a classical 4-parameters isotherm equation using the nonlinear regression function of GraphPad™ Prism 5.0 (GraphPad Software Inc.), such equation is described below:
[formula] where “L” is the lower asymptote of the theoretical sigmoidal curve, “H” is the higher asymptote, “C” is the concentration of compound and “n” is the Hill coefficient.
For `COc1cc(CNS(=O)(=O)c2cc(OC)ccc2OC)nc(-c2ccccn2)c1` [Compound 1, 2,5-Dimethoxy-N-(4-methoxy-[2,2′]bipyridinyl-6-ylmethyl)-benzenesulfonamide], the EC50 (usually the concentration needed to bring the measured effect to its halfway point) came to 36 µM.
The same measure, in the same setting: as for `COc1cc(CNS(=O)(=O)c2ccc(C)cc2)nc(-c2ccccn2)c1` [Compound 3, N-(4-Methoxy-[2,2′]bipyridinyl-6-ylmethyl)-4-methyl-benzenesulfonamide], the figure is 23 µM; as for `COc1cc(CNS(C)(=O)=O)nc(-c2ccccn2)c1` [Compound 5, N-(4-Methoxy-[2,2′]bipyridinyl-6-ylmethyl)-methanesulfonamide], 39.8 µM; as for `COc1cc(CNS(=O)(=O)C2CCCCC2)nc(-c2ccccn2)c1` [Compound 7, Cyclohexanesulfonic acid (4-methoxy-[2,2′]bipyridinyl-6-ylmethyl)-amide], 11.2 µM.
In the case of `COc1cc(CNS(=O)(=O)c2ccc3ccccc3c2)nc(-c2ccccn2)c1` [Compound 15, Naphthalene-2-sulfonic acid (4-methoxy-[2,2′]bipyridinyl-6-ylmethyl)-amide], it took 4.8 µM to reach a half-maximal effect (EC50).
Same read-out and setting: then `COc1cc(CNS(=O)(=O)C(F)(F)F)nc(-c2ccccn2)c1` [Compound 17, C,C,C-Trifluoro-N-(4-methoxy-[2,2′]bipyridinyl-6-ylmethyl)-methanesulfonamide], with 0.82 µM; and `COc1cc(CNS(=O)(=O)N2CCOCC2)nc(-c2ccccn2)c1` [Compound 20, Morpholine-4-sulfonic acid (4-methoxy-[2,2′]bipyridinyl-6-ylmethyl)-amide], with 5.1 µM; and `COc1cc(CNS(=O)(=O)c2cccnc2)nc(-c2ccccn2)c1` [Compound 21, Pyridine-3-sulfonic acid (4-methoxy-[2,2′]bipyridinyl-6-ylmethyl)-amide], with 5.19 µM.
For `COc1cc(CNS(=O)(=O)c2ccc(S(C)(=O)=O)cc2)nc(-c2ccccn2)c1` [Compound 22, 4-Methanesulfonyl-N-(4-methoxy-[2,2′]bipyridinyl-6-ylmethyl)-benzenesulfonamide], the midpoint of the response, the EC50, lay at 0.88 µM.
Take `COc1cc(CNS(=O)(=O)Cc2ccc(C(F)(F)F)cc2)nc(-c2ccccn2)c1` [Compound 23, N-(4-Methoxy-[2,2′]bipyridinyl-6-ylmethyl)-C-(4-trifluoromethyl-phenyl)-methanesulfonamide]: the midpoint of the response, the EC50, lay at 2.91 µM. Against the preceding molecule, the EC50 is about 3.3-fold higher.
As for `COc1cc(CN(Cc2cc(OC)cc(-c3ccccn3)n2)S(=O)(=O)c2cccs2)nc(-c2ccccn2)c1` [Compound 25], the EC50 amounted to 4.95 µM.
Same read-out and setting: as for `COc1cc(CNS(=O)(=O)c2c(C)noc2C)nc(-c2ccccn2)c1` [Compound 54], the figure is 23.1 µM.
Molecule `COc1cc(CNS(=O)(=O)c2ccc(Cl)cc2F)nc(-c2ccccn2)c1` [Compound 57] registered an EC50 of 1.5 µM.
On the same count and under the same terms, as for `COc1cc(CNS(=O)(=O)c2c(F)cccc2F)nc(-c2ccccn2)c1` [Compound 58], the figure is 1.6 µM; as for `COc1cc(CNS(=O)(=O)c2cc(F)ccc2F)nc(-c2ccccn2)c1` [Compound 59], 4.8 µM.
Regarding `COc1cc(CNS(=O)(=O)c2cccc3cccnc23)nc(-c2ccccn2)c1` [Compound 60], the EC50 came to 3.2 µM. The EC50 values of the last two molecules are within 1.5-fold of each other.
As to `COc1cc(CNS(=O)(=O)c2cccc3scnc23)nc(-c2ccccn2)c1` [Compound 61], the EC50 stood at 0.82 µM.
On the same count and under the same terms, then `COc1cc(CNS(=O)(=O)c2cc3ccccc3o2)nc(-c2ccccn2)c1` [Compound 62], with 1.88 µM.
On the same count and under the same terms, then `COc1cc(CNS(=O)(=O)c2ccc(-c3cc(C)no3)o2)nc(-c2ccccn2)c1` [Compound 79], with 0.72 µM; and `COc1cc(CNS(=O)(=O)c2cccc(Cl)c2Cl)nc(-c2ccccn2)c1` [Compound 95], with 1.09 µM.

Another test relates to secretion of amyloid peptide β1-40 (Aβ1-40). Put plainly: Inhibition of β-amyloid secretion (CHO7w cells stably transfected with human APP, ELISA). Type of test: cell-based. To be noted: CHO-7W, 24 h incubation, range stated for the listed compounds together. The protocol: The inhibition caused by the compounds on the secretion of amyloid peptide β1-40 (Aβ1-40) was determined by measuring the levels of this peptide in cell supernatants after incubating the cells with several concentrations of the tested compound. A CHO7w cell line, stably transfected with human amyloid precursor protein (APP), was used. Cells were dispensed in 96-well culture plates (5,000 cells/well) and grown in DMEM supplemented with 2% (v/v) foetal bovine serum, 100 U/ml penicillin, 100 μg/ml streptomycin, 2 mM L-glutamine and 200 μg/ml G418 in the presence of several concentrations of the tested compound which had been previously dissolved in DMSO (1% (v/v) DMSO final concentration). After a 24 h incubation the amount of Aβ1-40 secreted to the medium was measured with an ELISA-based commercial kit (Human Amyloid β-40 ELISA High Sensitivity Kit, Millipore, Billerica, Mass., USA) using absorbance at 450 nm as the final readout. In the culture plate several wells were included as a control for lack of Aβ1-40 secretion, in these wells the cells were incubated in the presence of 16% (v/v) DMSO to inhibit cell growth therefore abolishing Aβ1-40 secretion. Likewise, several wells were also included as a control for full Aβ1-40 secretion, in these wells the cells were grown in the presence of 1% (v/v) DMSO. The absorbance of each tested sample was normalized to that of the control wells, so that for every compound concentration the percentage of inhibition was calculated with the following equation:
[formula] where “S” is the absorbance of the sample being considered, “E” is the average absorbance of wells lacking Aβ1-40 secretion and “B” is the average absorbance of wells with full Aβ1-40 secretion. The inhibition values obtained at every compound concentration were fitted to a 4-parameters isotherm equation, as described above, to calculate the […] (i.e., the concentration causing 50% of inhibition of Ab1-40 secretion).
(In general: An ELISA detects its analyte on a solid surface through an enzyme-linked reagent.)
As for `CCN(CC)CCOc1cc(CN(Cc2cc(OCCN(CC)CC)cc(-c3ccccn3)n2)S(=O)(=O)c2cccs2)nc(-c2ccccn2)c1` [Compound 29, Thiophene-2-sulfonic acid bis-[4-(2-diethylamino-ethoxy)-[2,2′]bipyridinyl-6-ylmethyl]-amide], the IC50 (usually the concentration that gives 50% inhibition) is 0.3 to 42 µM.
As to `COc1ccc(S(=O)(=O)NCc2cc(OC)cc(-c3ccccn3)n2)cc1` [Compound 38, 4-Methoxy-N-(4-methoxy-[2,2′]bipyridinyl-6-ylmethyl)-benzenesulfonamide], the half-maximal inhibitory concentration (IC50) was in the range of 0.3 to 42 µM.
For `COc1cc(CNS(=O)(=O)c2ccccc2C#N)nc(-c2ccccn2)c1` [Compound 40], the half-maximal inhibitory concentration (IC50) was in the range of 0.3 to 42 µM.
The same measure, in the same setting: then `COc1cc(CNS(=O)(=O)c2ccc(-c3ccno3)s2)nc(-c2ccccn2)c1` [Compound 42], with 0.3 to 42 µM; and `COc1cc(CNS(=O)(=O)c2cc(Cl)ccc2F)nc(-c2ccccn2)c1` [Compound 44], with 0.3 to 42 µM; and `COc1cc(CNS(=O)(=O)c2ccc(-c3ccccn3)s2)nc(-c2ccccn2)c1` [Compound 46], with 0.3 to 42 µM.
Regarding `COc1cc(CNS(=O)(=O)c2sc(Cl)nc2C)nc(-c2ccccn2)c1` [Compound 47], the concentration for half-maximal inhibition (IC50) was 0.3 to 42 µM.
As to `COC(=O)c1ccc(S(=O)(=O)NCc2cc(OC)cc(-c3ccccn3)n2)o1` [Compound 51], the concentration for half-maximal inhibition (IC50) fell in the range of 0.3 to 42 µM.
Same read-out and setting: then `COc1cc(CNS(=O)(=O)c2ccc(CNC(C)=O)s2)nc(-c2ccccn2)c1` [Compound 52], with 0.3 to 42 µM.
In turn, `COc1cc(CNS(=O)(=O)c2cc(C(F)(F)F)ccc2F)nc(-c2ccccn2)c1` [Compound 66] gave an IC50 of 0.3 to 42 µM.
Molecule `COc1cc(CNS(=O)(=O)c2cc3ccccc3s2)nc(-c2ccccn2)c1` [Compound 73] returned an IC50 of 0.3 to 42 µM.
`COc1cc(CNS(=O)(=O)c2ccc([N+](=O)[O-])cc2)nc(-c2ccccn2)c1` [Compound 74] displayed an IC50 of 0.3 to 42 µM.
The same measure, in the same setting: then `COc1cc(CNS(=O)(=O)c2c(C)cc(C)cc2C)nc(-c2ccccn2)c1` [Compound 75], with 0.3 to 42 µM; and `COc1cc(CNS(=O)(=O)c2c(C)cccc2Cl)nc(-c2ccccn2)c1` [Compound 84], with 0.3 to 42 µM; and `COc1cc(CNS(=O)(=O)c2c(F)cc(OC)cc2F)nc(-c2ccccn2)c1` [Compound 85], with 0.3 to 42 µM.
As to `COc1cc(CNS(=O)(=O)CCC(F)(F)F)nc(-c2ccccn2)c1` [Compound 86], the IC50 fell in the range of 0.3 to 42 µM.
As to `COc1cc(CNS(=O)(=O)c2ccc3c(c2)OCCO3)nc(-c2ccccn2)c1` [Compound 87], the concentration for half-maximal inhibition (IC50) was 0.3 to 42 µM.
With `COc1cc(CNS(=O)(=O)c2ccc(C(C)(C)C)cc2)nc(-c2ccccn2)c1` [Compound 88], the IC50 lay within 0.3 to 42 µM.
For `COc1cc(CNS(=O)(=O)c2ccc(-c3ccccc3)cc2)nc(-c2ccccn2)c1` [Compound 89], the 50% inhibitory concentration (IC50) is 0.3 to 42 µM.
Still for that read-out and setting: as for `COc1cc(CNS(=O)(=O)c2c(Cl)cccc2Cl)nc(-c2ccccn2)c1` [Compound 97], the figure is 0.3 to 42 µM; as for `COc1cc(CNS(=O)(=O)c2ccc(C(F)(F)F)cc2[N+](=O)[O-])nc(-c2ccccn2)c1` [Compound 102], 0.3 to 42 µM.
Same read-out and setting: as for `COc1cc(CNS(=O)(=O)c2cnc(Cl)nc2)nc(-c2ccccn2)c1` [Compound 107], the figure is 0.3 to 42 µM.
